For this test, the target named is T1, P2Y12 receptor (Homo sapiens, UniProt Q9H244).
T1 construct: expressed in transfected cells; host or cells: CHO cells (membrane preparation)
As to the kind of experiment: Functional inhibition of 2-Me-S-ADP induced P2Y12 signalling (35S-GTPγS, cell membranes from P2Y12 transfected CHO-cells). It is filed as biochemical. The source says: Functional inhibition of—the P2Y12 receptor can be measured by in vitro assays using cell membranes from P2Y12 transfected CHO-cells. Inhibition of platelet aggregation as a result of P2Y12 antagonism is best measured by ADP-induced aggregation of washed human platelets, activation of the platelet fibrinogen receptor (GPIIb/IIIa), or aggregation in whole blood via residual platelet counting. Detailed methodology is indicated below.
Functional inhibition of 2-Me-S-ADP induced P2Y12 signalling: 5 μg of membranes were diluted in 200 μl of 200 mM NaCl, 1 mM MgCl2, 50 mM HEPES (pH 7.4), 0.01% BSA, 30 μg/ml saponin and 10 μM GDP. To this was added an EC80 concentration of agonist (2-methyl-thio-adenosine diphosphate), the required concentration of test compound and 0.1 μCi ^35S-GTPγS. The reaction was allowed to proceed at 30° C. for 45 min. Samples were then transferred on to GF/B filters using a cell harvester and washed with wash buffer (50 mM Tris (pH 7.4), 5 mM MgCl2, 50 mM NaCl). Filters were then covered with scintilant and counted for the amount of ^35S-GTPγS retained by the filter. Maximum activity was that determined in the presence of the agonist and minimum activity in the absence of the agonist following subtraction of the value determined for non-specific activity.

Like-named read-outs stand apart in the source and are kept apart here.

T1 sequence (Q9H244 whole entry): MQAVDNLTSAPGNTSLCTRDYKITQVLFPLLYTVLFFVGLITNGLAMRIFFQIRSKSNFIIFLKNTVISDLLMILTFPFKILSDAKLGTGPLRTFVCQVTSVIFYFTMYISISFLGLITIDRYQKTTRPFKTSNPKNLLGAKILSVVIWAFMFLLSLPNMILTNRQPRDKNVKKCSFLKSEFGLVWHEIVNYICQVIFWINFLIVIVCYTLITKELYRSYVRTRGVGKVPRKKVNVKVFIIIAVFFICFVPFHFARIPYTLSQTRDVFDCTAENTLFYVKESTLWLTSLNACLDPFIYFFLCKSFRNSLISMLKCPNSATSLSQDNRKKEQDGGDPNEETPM

As usually defined, the IC50 is the concentration at which inhibition is half-maximal. Regarding `CCOC(=O)c1cnc(N2CCN(C(=O)NS(=O)(=O)c3ccccc3)CC2)c(Cl)c1` [Example 10, Ethyl 5-chloro-6-(4-{[(phenylsulfonyl)amino]carbonyl}piperazin-1-yl)nicotinate], the IC50 (5 μg membranes, EC80 concentration of agonist 2-methyl-thio-adenosine diphosphate, 35S-GTPγS, 30° C., 45 min, read-out: IC50) was found to be 610 nM.
Turning to `CC(C)OC(=O)c1cnc(N2CCN(C(=O)NS(=O)(=O)c3ccc(Cl)s3)CC2)c(Cl)c1` [Example 18, Isopropyl 5-chloro-6-[4-({[(5-chloro-2-thienyl)sulfonyl]amino}carbonyl)piperazin-1-yl]nicotinate], the IC50 came to 520 nM.

The values above are taken from patent publication US20090227555A2, “Novel Pyridine Compounds” (priority 2005, published 2009).
